Assay results taken from PMC6027146, “Synthesis and Structure-Activity Relationships of (−)-cis-N-Normetazocine-Based LP1 Derivatives” (Pharmaceuticals, 2018).
Read-outs that look alike come from different tables or passages of the source.

Key:
recombinant human MOR = biological target: T1, recombinant human MOR (Homo sapiens, UniProt P35372); experiment: Calcium mobilization assay, CHO-MOR cells expressing Gαqi5; type: cell-based; settings: for MOR pEC50 (CL95%): agonist mode, crc incomplete = incomplete concentration response curve at 10 μM
T1 construct: expressed in transfected cells; gift of Dr. Larry Toll (SRI International); infected with a retrovirus for Gαqi5

recombinant human DOR = biological target: T2, recombinant human DOR (Homo sapiens, UniProt P41143); experiment: Calcium mobilization assay, CHO-DOR cells expressing GαqG66Di5; type: cell-based; settings: for DOR pEC50 (CL95%): agonist mode, crc incomplete = incomplete concentration response curve at 10 μM
T2 construct: expressed in transfected cells; supplied by Dr. Eva Varga (University of Arizona); infected with a retrovirus for GαqG66Di5
Protocol: (§1) The pharmacological characterization of LP1 derivatives 2 and 10–16 was performed by calcium mobilization assay (Table 2). This procedure was preliminarily validated through a series of experiments where the effects of DPDPE, dermorphin, and dynorphin A were assessed in CHO cells expressing the human recombinant opioid receptors and Gαqi5 or GαqG66Di5 chimeric proteins.
(§2) Chinese hamster ovary (CHO) cells expressing the recombinant human MOR and KOR (CHO^MOR and CHO^KOR) were kindly provided by Dr. Larry Toll (SRI International, Menlo Park, CA, USA), and CHO cells expressing the recombinant human DOR (CHO^DOR) were supplied by Dr. Eva Varga (Department of Medical Pharmacology, The University of Arizona, Tucson, AZ, USA). CHO cells lines permanently coexpressing the opioid receptors and the C-terminally modified Gαqi5 were prepared by infecting the CHO lines described above with a recombinant retrovirus expressing the chimeric α subunit and the hygromycin resistance gene. Similarly, CHO cells lines permanently coexpressing DOR and the C-terminally modified GαqG66Di5 were prepared by infecting the CHO lines described above with a recombinant retrovirus expressing the chimeric α subunit and the hygromycin resistance gene. Polyclonal cell lines were generated using the pantropic retroviral expression system form BD-Clontech, as described previously. Stable lines were selected under hygromycin B (100 μg/mL) and geneticin (600 μg/mL) for 2–3 weeks after the infection.
(§3) CHO cells, expressing human opioid receptors and the Gαqi5 protein, and CHODOR, expressing the GαqG66Di5 protein, were maintained in culture medium consisting of Dulbecco minimum essential medium (DMEM) and Ham F-12 (1:1) (50/50) supplemented with 10% fetal calf serum (FCS), L-glutamine (2 mM), geneticin (200 μg/mL; G418), hygromycin B (100 μg/mL) at 37 °C in 5% CO2 humidified air. When confluence was reached (3–4 days), cells were subcultured as required using trypsin/EDTA, and used for experimentation. The different cell lines were seeded at a density of […] into black 96-well, clear-bottomed plates. After 24 h incubation, the cells were loaded with medium supplemented with 2.5 mM probenecid, 3 μM of the calcium sensitive fluorescent dye Fluo-4 AM, and 0.01% pluronic acid, for 30 min at 37 °C. Afterwards, the loading solution was aspirated and 100 μL/well of assay buffer—HBSS supplemented with 20 mM HEPES, 2.5 mM probenecid and 500 μM Brilliant Black (Aldrich, St. Louis, MO, USA)—was added. Serial dilutions of ligands for experimental use were made in HBSS/HEPES (20 mM) buffer (containing 0.005% BSA fraction V). After placing both plates (cell culture and compound plate) into the FlexStation II (Molecular Device, Union City, San Jose, CA 94587, USA), fluorescence changes were measured at room temperature. Online additions were carried out in a volume of 50 μL/well. Antagonists were incubated 15 min before the addition of the agonist. Maximum change in fluorescence, expressed in percent of baseline fluorescence, was used to determine agonist response.
(§4) Analysis of the binding data was performed using the Origin 7.5 software (OriginLab Corporation, Northampton, MA, USA). In calcium mobilization experiments, data were analyzed by non-linear curve fitting equation, using GraphPad 5.0 software. […] Ligand efficacy was expressed as intrinsic activity (α), calculated as the ratio between the Emax of the ligand and that of the respective standards. Calcium mobilization data were expressed as FIU (fluorescence intensity units) in percent, over the baseline. Agonist potencies are given as pEC50 (the negative logarithm to base 10 of the molar concentration of an agonist that produces 50% of the maximal possible effect, Emax). Concentration response curves to agonists were fitted with the following equation: Effect = baseline + (Emax − baseline)/(1+10^(LogEC50 − X) ∗ HillSlope) where X is the agonist concentration. […]

rat-MOR [1] = biological target: T3, rat-MOR (Rattus norvegicus, UniProt P33535); set-up: method as in PMID 27234885; settings: read-out: Ki (μM) ± SEM MOR; [3H]-DPN displacement; cited from earlier work
T3 construct: expressed in transfected cells

rat-DOR [2] = biological target: T4, rat-DOR (Rattus norvegicus, UniProt P33533); set-up: method as in PMID 27234885; settings: read-out: Ki (μM) ± SEM DOR; [3H]-DPN displacement; cited from earlier work
T4 construct: expressed in transfected cells

human-KOR [3] = biological target: T5, human-KOR (Homo sapiens, UniProt P41145); set-up: expressed in transfected cells; method as in PMID 27234885; settings: read-out: Ki (μM) ± SEM KOR; [3H]-DPN displacement; cited from earlier work
human-KOR [4] = biological target: T5, human-KOR; experiment: Calcium mobilization assay, CHO-KOR cells expressing Gαqi5; type: cell-based; set-up: expressed in transfected cells; gift of Dr. Larry Toll (SRI International); infected with a retrovirus for Gαqi5; settings: for KOR pEC50 (CL95%): agonist mode, crc incomplete = incomplete concentration response curve at 10 μM
Protocol: as §1, §2, §3, §4

rat-MOR [5] = biological target: T3, rat-MOR; experiment: Radioligand competition binding, [3H]-DPN, HEK293 membranes, MOR; settings: [3H]-DPN displacement; means ± SEM of three experiments in duplicate; read-out: Ki (μM) ± SEM MOR
Protocol: (§5) All synthesized compounds were tested in vitro by radioligand competition binding using [^3H]-diprenorphine ([^3H]-DPN) to measure the affinity for opioid receptor subtypes in membranes from HEK293 cells stably expressing either MOR, DOR, or KOR, as previously described.
(§6) Confluent monolayers of HEK293 (human embryonic kidney 293) cells stably expressing rat-MOR, rat-DOR, or human-KOR were harvested, collected by centrifugation at 1500 rpm for 5 min, and washed once with phosphate-buffered saline (PBS) at pH 7.5. Membranes from cell pellets were carried out as described by Georgoussi and Zioudrou (1993) and Papakonstantinou et al. (2015). Briefly, cell pellets were resuspended in ice-cold membrane buffer (10 mM Tris-HCl, pH 7.5 and 0.1 mM EDTA), homogenized, and centrifuged at 2,000 g for 3 min at 4 °C. Supernatants were further centrifuged at 45,000 rpm for 30 min at 4 °C. The membrane pellet was resuspended in ice-cold membrane buffer at a protein concentration of approximately 1 mg/mL and stored in aliquots at −70 °C. Protein concentration was determined according to Bradford assay.
(§7) In the experiments designed to define compound affinity and selectivity for MOR, DOR, and KOR, membranes expressing each of these opioid receptors ([…]) were incubated at 30 °C for 45 min in buffer containing 50 mM Tris-HCl, pH 7.5, 100 mM NaCl, and 10 mM MgCl2 as described by Georgoussi et al. […] The ability of compounds 10–16 to displace [^3H]-DPN (3.75 nM) binding to the opioid receptors was assessed as described by Morou And Georgoussi (2005). Non-specific binding was measured in the presence of […] Naloxone. The reaction was stopped by rapid filtration and three washes in ice-cold 50 mM Tris-HCl, pH 7.4, through GF/C filters (Whatman, Maidstone, UK) using an automated cell harvester (Brandel Inc., Gaithersburg, MD, USA). The radioactivity was measured by liquid scintillation counting (Liquid Scintillation Analyzer, Packard).
(§8) Analysis of the binding data was performed using the Origin 7.5 software (OriginLab Corporation, Northampton, MA, USA). In calcium mobilization experiments, data were analyzed by non-linear curve fitting equation, using GraphPad 5.0 software. […] Ligand efficacy was expressed as intrinsic activity (α), calculated as the ratio between the Emax of the ligand and that of the respective standards. Calcium mobilization data were expressed as FIU (fluorescence intensity units) in percent, over the baseline. Agonist potencies are given as pEC50 (the negative logarithm to base 10 of the molar concentration of an agonist that produces 50% of the maximal possible effect, Emax). Concentration response curves to agonists were fitted with the following equation: Effect = baseline + (Emax − baseline)/(1+10^(LogEC50 − X) ∗ HillSlope) where X is the agonist concentration.

rat-DOR [6] = biological target: T4, rat-DOR; experiment: Radioligand competition binding, [3H]-DPN, HEK293 membranes, DOR; settings: [3H]-DPN displacement; means ± SEM of three experiments in duplicate; read-out: Ki (μM) ± SEM DOR
Protocol: as §5, §6, §7, §8

human-KOR [7] = biological target: T5, human-KOR; experiment: Radioligand competition binding, [3H]-DPN, HEK293 membranes, KOR; set-up: expressed in transfected cells; settings: [3H]-DPN displacement; means ± SEM of three experiments in duplicate; read-out: Ki (μM) ± SEM KOR
Protocol: as §5, §6, §7, §8

SMILES	Kb (recombinant human MOR)	MOR pEC50 (CL95%) (recombinant human MOR; Inactive = inactive at 10 μM)	Kb (recombinant human DOR)	DOR pEC50 (CL95%) (recombinant human DOR; Inactive = inactive at 10 μM)	Ki (rat-MOR [1])	Ki (rat-DOR [2])	Ki (human-KOR [3])	Kb (human-KOR [4])	KOR pEC50 (CL95%) (human-KOR [4]; Inactive = inactive at 10 μM)	Ki (rat-MOR [5])	Ki (rat-DOR [6])	Kb (recombinant human MOR; antagonist mode, dermorphin as agonist, Inactive = inactive at 10 μM, read-out: MOR pKB (CL95%) (converted))	DOR pKB (CL95%) (recombinant human DOR; antagonist mode, DPDPE as agonist, Inactive = inactive at 10 μM)	melting point	Ki (human-KOR [7])	KOR pKB (CL95%) (human-KOR [4]; antagonist mode, dynorphin A as agonist, Inactive = inactive at 10 μM)
CC1C2Cc3ccc(O)cc3C1(C)CCN2CCC(=O)Nc1cccc2ccccc12 (stereo not shown) [Compound 2]	0.0126 µM	Inactive ^e	0.166 µM	Inactive	0.038 ± 0.004 µM	0.21 ± 0.03 µM	0.8 ± 0.016 µM	1.38 µM	Inactive	–	–	–	–	–	–	–
C[C@H]1[C@H]2Cc3ccc(O)cc3[C@]1(C)CCN2CCC(=O)N1CCc2ccccc21 [Compound 14, 1-(2,3-Dihydro-1H-indol-1-yl)-3-[(2R,6R,11R)-8-hydroxy-6,11-dimethyl-1,4,5,6-tetrahydro-2,6-methano-3-benzazocin-3(2H)-yl]propan-1-one]	–	Inactive	–	Inactive	–	–	–	–	Inactive	0.4 ± 0.03 µM	1.4 ± 0.12 µM	1.15 µM	Inactive	169 °C (dec.)	1.6 ± 0.12 µM	Inactive
